Test results as given in PubChem BioAssay (NCI).
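Values below derive from 48-hour exposures of cells grown in 96-well plates, with endpoints linearly interpolated between the two concentrations bracketing the appropriate inhibition level. TGI: total growth inhibition.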

Assays:
Assay in all cases: NCI tumour cell line growth inhibition, 48 h
OVCAR-8 ovarian = test system: OVCAR-8 ovarian
HOP-62 NSCLC = test system: HOP-62 NSCLC
RPMI-8226 leukemia = test system: RPMI-8226 leukemia
DU-145 prostate = test system: DU-145 prostate
COLO 205 colon = test system: COLO 205 colon
K-562 leukemia = test system: K-562 leukemia
UO-31 renal = test system: UO-31 renal
SR leukemia = test system: SR leukemia
NCI/ADR-RES ovarian = test system: NCI/ADR-RES ovarian
HS 578T breast = test system: HS 578T breast
SK-MEL-5 melanoma = test system: SK-MEL-5 melanoma
HOP-92 NSCLC = test system: HOP-92 NSCLC
HCT-15 colon = test system: HCT-15 colon
MDA-N = test system: MDA-N
PC-3 prostate = test system: PC-3 prostate
SF-268 CNS = test system: SF-268 CNS
TK-10 renal = test system: TK-10 renal
IGROV1 ovarian = test system: IGROV1 ovarian
SK-MEL-28 melanoma = test system: SK-MEL-28 melanoma
OVCAR-5 ovarian = test system: OVCAR-5 ovarian
SF-539 CNS = test system: SF-539 CNS
A549 NSCLC = test system: A549 NSCLC
UACC-62 melanoma = test system: UACC-62 melanoma
HT29 colon = test system: HT29 colon
U251 CNS = test system: U251 CNS
SF-295 CNS = test system: SF-295 CNS
NCI-H522 lung = test system: NCI-H522 lung
MOLT-4 leukemia = test system: MOLT-4 leukemia
786-0 renal = test system: 786-0 renal
MCF7 breast = test system: MCF7 breast
ACHN renal = test system: ACHN renal
SN12C renal = test system: SN12C renal
CCRF-CEM leukemia = test system: CCRF-CEM leukemia
M14 melanoma = test system: M14 melanoma
SW-620 colon = test system: SW-620 colon
HL-60(TB) leukemia = test system: HL-60(TB) leukemia
MALME-3M melanoma = test system: MALME-3M melanoma
HCC-2998 colon = test system: HCC-2998 colon
EKVX NSCLC = test system: EKVX NSCLC
T-47D breast = test system: T-47D breast
KM12 colon = test system: KM12 colon
NCI-H23 lung = test system: NCI-H23 lung
SNB-19 CNS = test system: SNB-19 CNS
NCI-H460 lung = test system: NCI-H460 lung
NCI-H226 lung = test system: NCI-H226 lung
A498 renal = test system: A498 renal
OVCAR-4 ovarian = test system: OVCAR-4 ovarian
OVCAR-3 ovarian = test system: OVCAR-3 ovarian
UACC-257 melanoma = test system: UACC-257 melanoma
HCT-116 colon = test system: HCT-116 colon
SK-MEL-2 melanoma = test system: SK-MEL-2 melanoma
MDA-MB-231 breast = test system: MDA-MB-231 breast
SNB-75 CNS = test system: SNB-75 CNS
RXF 393 renal = test system: RXF 393 renal
SK-OV-3 ovarian = test system: SK-OV-3 ovarian
LOX IMVI melanoma = test system: LOX IMVI melanoma
MDA-MB-435 = test system: MDA-MB-435
CAKI-1 renal = test system: CAKI-1 renal

CCOC1CCC2C(CCC(/C=C/c3ccc(O)c4ncccc34)N2C)C1 (centres undefined)
TGI (OVCAR-8 ovarian): > 100 µM | TGI (HOP-62 NSCLC): > 100 µM | TGI (RPMI-8226 leukemia): > 100 µM | TGI (DU-145 prostate): > 100 µM | TGI (COLO 205 colon): 11.9 µM | TGI (K-562 leukemia): > 100 µM | TGI (UO-31 renal): > 100 µM | TGI (SR leukemia): > 100 µM | TGI (NCI/ADR-RES ovarian): > 100 µM | TGI (HS 578T breast): 51.6 µM | TGI (SK-MEL-5 melanoma): > 100 µM | TGI (HOP-92 NSCLC): 59.7 µM | TGI (HCT-15 colon): > 100 µM | TGI (MDA-N): > 100 µM | TGI (PC-3 prostate): > 100 µM | TGI (SF-268 CNS): > 100 µM | TGI (TK-10 renal): > 100 µM | TGI (IGROV1 ovarian): > 100 µM | TGI (SK-MEL-28 melanoma): > 100 µM | TGI (OVCAR-5 ovarian): > 100 µM | TGI (SF-539 CNS): 29.2 µM | TGI (A549 NSCLC): > 100 µM | TGI (UACC-62 melanoma): > 100 µM | TGI (HT29 colon): > 100 µM | TGI (U251 CNS): > 100 µM | TGI (SF-295 CNS): > 100 µM | TGI (NCI-H522 lung): 5.89 µM | TGI (MOLT-4 leukemia): > 100 µM | TGI (786-0 renal): > 100 µM | TGI (MCF7 breast): > 100 µM | TGI (ACHN renal): > 100 µM | TGI (SN12C renal): > 100 µM | TGI (CCRF-CEM leukemia): > 100 µM | TGI (M14 melanoma): > 100 µM | TGI (SW-620 colon): > 100 µM | TGI (HL-60(TB) leukemia): > 100 µM | TGI (MALME-3M melanoma): > 100 µM | TGI (HCC-2998 colon): > 100 µM | TGI (EKVX NSCLC): 90.4 µM | TGI (T-47D breast): 62 µM | TGI (KM12 colon): 95.2 µM | TGI (NCI-H23 lung): 66 µM | TGI (SNB-19 CNS): > 100 µM | TGI (NCI-H460 lung): > 100 µM | TGI (NCI-H226 lung): > 100 µM

CC(=O)Oc1c(C)cc2c(c1C)C(C)CN2C(C)=O (centres undefined)
TGI (A498 renal): > 100 µM | TGI (OVCAR-4 ovarian): > 100 µM | TGI (OVCAR-8 ovarian): > 100 µM | TGI (HOP-62 NSCLC): > 100 µM | TGI (OVCAR-3 ovarian): > 100 µM | TGI (RPMI-8226 leukemia): > 100 µM | TGI (DU-145 prostate): > 100 µM | TGI (UACC-257 melanoma): > 100 µM | TGI (COLO 205 colon): > 100 µM | TGI (K-562 leukemia): > 100 µM | TGI (UO-31 renal): > 100 µM | TGI (NCI/ADR-RES ovarian): > 100 µM | TGI (HS 578T breast): > 100 µM | TGI (SK-MEL-5 melanoma): > 100 µM | TGI (HOP-92 NSCLC): > 100 µM | TGI (HCT-15 colon): > 100 µM | TGI (MDA-N): > 100 µM | TGI (PC-3 prostate): > 100 µM | TGI (SF-268 CNS): > 100 µM | TGI (TK-10 renal): > 100 µM | TGI (IGROV1 ovarian): > 100 µM | TGI (SK-MEL-28 melanoma): > 100 µM | TGI (HCT-116 colon): > 100 µM | TGI (OVCAR-5 ovarian): > 100 µM | TGI (SF-539 CNS): > 100 µM | TGI (A549 NSCLC): > 100 µM | TGI (UACC-62 melanoma): > 100 µM | TGI (HT29 colon): > 100 µM | TGI (SK-MEL-2 melanoma): > 100 µM | TGI (MDA-MB-231 breast): > 100 µM | TGI (U251 CNS): > 100 µM | TGI (SF-295 CNS): > 100 µM | TGI (NCI-H522 lung): > 100 µM | TGI (SNB-75 CNS): > 100 µM | TGI (MOLT-4 leukemia): > 100 µM | TGI (786-0 renal): > 100 µM | TGI (MCF7 breast): > 100 µM | TGI (ACHN renal): > 100 µM | TGI (SN12C renal): > 100 µM | TGI (RXF 393 renal): > 100 µM | TGI (SK-OV-3 ovarian): > 100 µM | TGI (LOX IMVI melanoma): > 100 µM | TGI (CCRF-CEM leukemia): > 100 µM | TGI (M14 melanoma): > 100 µM | TGI (SW-620 colon): > 100 µM | TGI (HL-60(TB) leukemia): > 100 µM | TGI (HCC-2998 colon): > 100 µM | TGI (EKVX NSCLC): > 100 µM | TGI (T-47D breast): > 100 µM | TGI (KM12 colon): > 100 µM | TGI (NCI-H23 lung): > 100 µM | TGI (SNB-19 CNS): > 100 µM | TGI (MDA-MB-435): > 100 µM | TGI (NCI-H460 lung): > 100 µM | TGI (NCI-H226 lung): > 100 µM

CCOC(=O)C(=CNC(=S)c1ccncc1)C(=O)OCC
TGI (A498 renal): > 100 µM | TGI (OVCAR-4 ovarian): > 100 µM | TGI (HOP-62 NSCLC): > 100 µM | TGI (OVCAR-3 ovarian): > 100 µM | TGI (RPMI-8226 leukemia): > 100 µM | TGI (DU-145 prostate): > 100 µM | TGI (UACC-257 melanoma): > 100 µM | TGI (CAKI-1 renal): > 100 µM | TGI (COLO 205 colon): > 100 µM | TGI (K-562 leukemia): > 100 µM | TGI (UO-31 renal): > 100 µM | TGI (SR leukemia): > 100 µM | TGI (HS 578T breast): > 100 µM | TGI (SK-MEL-5 melanoma): > 100 µM | TGI (HOP-92 NSCLC): > 100 µM | TGI (HCT-15 colon): > 100 µM | TGI (MDA-N): > 100 µM | TGI (PC-3 prostate): > 100 µM | TGI (SF-268 CNS): > 100 µM | TGI (TK-10 renal): > 100 µM | TGI (IGROV1 ovarian): > 100 µM | TGI (SK-MEL-28 melanoma): > 100 µM | TGI (HCT-116 colon): > 100 µM | TGI (OVCAR-5 ovarian): > 100 µM | TGI (SF-539 CNS): > 100 µM | TGI (A549 NSCLC): > 100 µM | TGI (UACC-62 melanoma): > 100 µM | TGI (SK-MEL-2 melanoma): > 100 µM | TGI (MDA-MB-231 breast): > 100 µM | TGI (U251 CNS): > 100 µM | TGI (SF-295 CNS): > 100 µM | TGI (NCI-H522 lung): > 100 µM | TGI (SNB-75 CNS): > 100 µM | TGI (MOLT-4 leukemia): > 100 µM | TGI (786-0 renal): > 100 µM | TGI (MCF7 breast): > 100 µM | TGI (ACHN renal): > 100 µM | TGI (SN12C renal): > 100 µM | TGI (RXF 393 renal): > 100 µM | TGI (SK-OV-3 ovarian): > 100 µM | TGI (LOX IMVI melanoma): > 100 µM | TGI (CCRF-CEM leukemia): > 100 µM | TGI (M14 melanoma): > 100 µM | TGI (SW-620 colon): > 100 µM | TGI (HL-60(TB) leukemia): > 100 µM | TGI (MALME-3M melanoma): > 100 µM | TGI (HCC-2998 colon): > 100 µM | TGI (EKVX NSCLC): > 100 µM | TGI (T-47D breast): > 100 µM | TGI (KM12 colon): > 100 µM | TGI (NCI-H23 lung): > 100 µM | TGI (SNB-19 CNS): > 100 µM | TGI (MDA-MB-435): > 100 µM | TGI (NCI-H460 lung): > 100 µM
